Data taken from patent US10945978B2, “Treatment and diagnosis of melanoma” (The Rockefeller University, priority 2012, dated 2021).
Where a name gives a salt, the structure may show the parent alone.

How the values were obtained:
endothelial cells = assay: Endothelial recruitment by breast, renal cell and pancreatic cancer cells with ApoE; type: cell-based
Extracellular ApoE = assay: ApoE ELISA in conditioned media; type: cell-based, human; conditions: MeWo cells; 1 μM, 72 hours
Experimental: Extracellular ApoE levels in serum-free conditioned media from melanoma cells treated with DMSO, GW3965, or T0901317 (1 μM each) were quantified using the ApoE ELISA kit (Innovative Research) at 72 hours following treatment.

[1] = system: MeWo human melanoma cells; assay: Lung metastatic colonization by MeWo cells injected i.v. into NOD Scid mice; type: in vivo; conditions: for reduction in lung metastatic colonization: chow 20 mg/kg starting 10 days prior to cell injection
Experimental: (§1) Melanoma cells used for in vivo metastasis assays were transduced with a stably expressed retroviral construct encoding a luciferase reporter gene (Ponomarev et al., 2004), allowing us to monitor the in vivo progression of melanoma cells by bioluminescence imaging. The following numbers of melanoma cells, resuspended in 100 μL of PBS, were injected intravenously via the tail-vein: 4×10^4 MeWo cells, 2.5×10^5 HT-144 cells, 2×10^5 SK-Mel-334.2 cells, 5×10^4B16F10 cells, and 1×10^5 YUMM cells. The MeWo, HT-144, and SK-Mel-334.2 cells were injected into 6-8 week-old sex-matched NOD scid mice, while the B16F10 and YUMM cells were injected into 6-8 week-old sex-matched C57BL/6 mice. In all experiments assessing at the effects of GW3965 on metastasis formation, mice were pre-treated on a control diet or a GW3965-supplemented diet (20 mg/kg) for 10 days. To assess the effect of GW3965 treatment on brain metastasis, 1×10^5 MeWo brain-metastatic derivatives were injected intracardially into athymic nude mice. Immediately following injection, mice were randomly assigned to a control diet or GW3965-supplemented diet (100 mg/kg). To determine whether oral delivery of GW3965 can inhibit the progression of incipient metastasis, NOD Scid mice were intravenously injected with 4×10^4 MeWo cells and the cells were allowed to colonize the lungs for 42 days, after which mice were blindedly assigned to a control diet or a GW3965-supplemented diet (100 mg/kg) treatment.

[2] = system: B16F10 parental and DTIC-resistant cells; assay: Tumor growth by DTIC-sensitive and DTIC-resistant B16F10 cells; type: in vivo, mouse; conditions: chow supplemented with GW3965 100 mg/kg
Experimental: First, the cells were treated with 500 μg/mL DTIC for one week. Following this initial DTIC treatment, the remaining (˜10%) viable cells were allowed to recover for one week, after which 750 rag/mL of DTIC was added to the cell media for 5 days. Subsequent to this high-dose treatment, the cells were allowed to recover in the presence of low-dose DTIC (100 jag/mL) for one week. The cells were then continuously cultured in cell media containing 200 rag/mL DTIC for at least one month prior to grafting the cells into mice. DTIC was added to fresh cancer cell media every 3 days.

[3] = system: MeWo human melanoma cells; assay: Tumor histochemistry (MECA-32, Ki-67, cleaved caspase-3) of MeWo tumors; type: in vivo; conditions: GW3965 diet 20 mg/kg, 35 days
Source text: Animals were intracardially perfused with PBS followed by 4% paraformaldehyde (PFA). Fixed lungs were embedded in paraffin and sectioned into 5-jam-thick increments. Macroscopic lung metastatic nodules were visualized by H&E staining. For analysis of tumor endothelial cell content, proliferation, and apoptosis, primary tumor paraffin-embedded sections were stained with antibodies against MECA-32 (Developmental Studies Hybridoma Bank, University of Iowa), KI-67 (ab15580, Abcam), and cleaved caspase-3 (9661, Cell Signaling), respectively.
Tumors were excised from mice and fixed in 4% paraformaldehyde at 4° C. for 48 hours. Then, tumors were paraffin-embedded and sectioned into 5-μm-thick increments. For endothelial cell content analysis in tumors, tumor sections were stained with a primary antibody against the mouse endothelial cell marker MECA-32 (Developmental Studies Hybridoma Bank, The University of Iowa, IA) and counterstained with DAPI nuclear stain. To determine tumor cell proliferation and apoptosis, tumor sections were stained with antibodies against the proliferative marker Ki-67 (Abcam, ab15580, Cambridge, Mass.) and the apoptotic marker cleaved caspase-3 (9661, Cell Signaling, Danvers, Mass.), respectively. Various Alexa Flour dye-conjugated secondary antibodies were used to detect primary antibodies. […] Endothelial cell content density and tumor proliferation rate were quantified by calculating the average percentage of MECA-32 or Ki-67 positively-staining area out of the total tumor area. Tumor apoptosis was measured by counting the number of cleaved caspase-3 expressing cells per given tumor area.

[4] = system: SK-Mel-239 vemurafenib-resistant clone cells; assay: SK-Mel-239 vemurafenib-resistant tumors in NOD Scid gamma mice; type: in vivo, human; conditions: GW3965 diet 100 mg/kg
[5] = system: SK-Mel-334.2 primary human melanoma line; assay: Subcutaneous SK-Mel-334.2 tumor growth in immunocompromised mice; type: in vivo; conditions: oral, GW3965-supplemented diet
[6] = system: DTIC-resistant MeWo human melanoma cells; conditions: oral, GW3965 diet 100 mg/kg
Experimental: Following growth of tumors to 5-10 mm^3 in volume, mice were blindedly assigned to the following treatment groups: (1) control diet; (2) control diet+DTIC (50 mg/kg); (3) GW3965-supplemented diet (100 mg/kg). […] DTIC was administered daily, as described above, in cycles consisting of 5 consecutive daily treatments interspersed by 2-day off-treatment intervals. Tumor growth was measured twice a week.

[7] = system: MDA-468 human breast cancer cells; assay: MDA-468 breast cancer tumor growth in Nod Scid gamma mice; type: in vivo; conditions: GW3965-supplemented diet 75 mg/kg/day
Experimental: The mice were assigned to a control diet treatment or a GW3965-supplemented diet treatment (75 mg/kg/day) two days prior to injection of the cancer cells.

MeWo cells = assay: Orthotopic metastasis assay (lung colonization after tumor excision); type: in vivo, human; conditions: oral, 100 mg/kg for 1 month post-tumor excision
Experimental: To determine the effect of GW3965 treatment on lung colonization by melanoma cells dissociated from an orthotopic site, 1×10^6 MeWo cells expressing a luciferase reporter were subcutaneously injected into both lower flanks of NOD Scid mice. Upon the formation of tumors measuring ˜300 mm^3 in volume, the tumors were excised and the mice were randomly assigned to a control diet or a GW3965-supplemented diet (100 mg/kg) treatment. One month after tumor excision, the lungs were extracted and lung colonization was measured by ex vivo bioluminescence imaging. To histologically confirm the extent of melanoma lung colonization, lungs were then fixed in 4% PFA overnight, paraffin-embedded, section into […] increments and stained for human vimentin (VP-V684, Vector Laboratories).

[8] = system: MeWo brain-metastatic derivatives; assay: Brain metastasis assay, intracardiac injection into athymic nude mice; type: in vivo, human; conditions: oral, GW3965 diet 100 mg/kg from day 0
Experimental: as §1, with “To determine whether oral delivery of GW3965 can inhibit the progression of incipient metastasis, NOD Scid mice were intravenously injected with 4×10^4 MeWo cells and the cells were allowed to colonize the lungs for 42 days, after which mice were blindedly assigned to a control diet or a GW3965-supplemented diet (100 mg/kg) treatment.” left out

[9] = system: MeWo human melanoma cells; assay: Subcutaneous MeWo tumor growth in immunocompromised mice; type: in vivo; conditions: oral, GW3965-supplemented diet
Experimental: Animals were palpated weekly for tumor formation, after which sizeable tumors were measured twice a week. Tumor volume was calculated as (small diameter)^2×(large diameter)/2.

Row | Compound | endothelial recruitment (endothelial cells) | levels of secreted ApoE protein (Extracellular ApoE) | reduction in lung metastatic colonization ([1]; oral) | suppression of tumor growth by the DTIC-resistant B16F10 clone [2] | decrease in the number of actively proliferating tumor cells ([3]; Ki-67) | reduction in the endothelial cell content of tumors ([3]; MECA-32) | number of apoptotic cells ([3]; cleaved caspase-3) | suppression of tumor growth [4] | survival of mice bearing vemurafenib-resistant melanoma burden [4] | tumor growth inhibition [5] | growth of in vivo-derived DTIC-resistant human melanoma tumors [6] | breast cancer tumor size [7] | inhibition of lung colonization by disseminated melanoma cells (MeWo cells) | systemic dissemination and brain colonization [8] | survival times following metastatic colonization ([1]; GW3965-supplemented chow) | suppression of colonization by incipient lung metastases ([1]; GW3965 diet 100 mg/kg from d42) | number of macroscopic metastatic nodules ([1]; GW3965 diet 100 mg/kg from d42, lungs at d77) | reduction in metastatic colonization capacity ([1]; cells pre-treated with GW3965 1 μM for 48 hours) | in vivo melanoma metastasis (lung, bioluminescence) ([1]; chow containing GW3965 20 mg/kg, oral) | tumor growth inhibition [9]
1 | recombinant human ApoE: recombinant human ApoE3 (4696, BioVision) | inhibited |  |  |  |  |  |  |  |  |  |  |  |  |  |  |  |  |  |  | 
2 | O=S(=O)(c1ccccc1)N(CC(F)(F)F)c1ccc(C(O)(C(F)(F)F)C(F)(F)F)cc1 [T0901317 1] |  | elevated levels | 23 fold |  |  |  |  |  |  |  |  |  |  |  |  |  |  |  |  | 
3 | O=C(O)Cc1cccc(OCCCN(Cc2cccc(C(F)(F)F)c2Cl)CC(c2ccccc2)c2ccccc2)c1 [GW3965 2, 3-[3-[N-(2-Chloro-3-trifluoromethylbenzyl)-(2,2-diphenylethyl)amino]propyloxy] phenylacetic acid hydrochloride] |  | elevated levels | 31 fold | more than 70% | 23% | roughly 2 fold | without a change | 72% | significantly prolonged | 73% | strongly inhibited | significant reduction | 17 fold | inhibited | significantly prolonged | 28 fold | decreased | more than 50 fold | significant reduction | 70%
